Our source for the IC50, inhibition and morphologic changes values is paper PMC3945760, “Antioxidant action and cytotoxicity on HeLa and NIH-3T3 cells of new quercetin derivatives” (Interdisciplinary Toxicology, 2013).

By IC50 is commonly meant the concentration that gives 50% inhibition.

The subject of experiment [1] is human cervical cancer cells HeLa. Description: MTT assay on HeLa cells. Type of experiment: cell-based. The following applies: for IC50: MTT, 72 h drug exposure, read-out: IC50 ± SD HeLa cells. On the procedure: (§1) The human tumor cell line HeLa and murine fibroblast NIH-3T3 cells were obtained from the ATCC (Rockville, MD, USA). The cells grown at 37 °C in humidified 5%-CO2 and 95%-air atmosphere were in Dulbecco's modified eagle medium supplemented with 10% (vol/vol) inactivated bovine serum, penicillin G and streptomycin (100 mg/l). Before a uniform monolayer of cells was formed, cells were freed from the surface of the culture flask by a 0.25% solution of trypsin and were subcultivated two to three times a week. The cells were plated on the cultivation flask (surface 25 cm^2) at a density of 4×10^4 HeLa cells and 6×10^4 NIH-3T3 cells per ml medium and incubated for 24 h prior to the experiments.
(§2) The cytotoxic effect of the compounds prepared on cells was detected in vitro using the mitochondrial cytotoxic test according to Jantová et al. ([2010]) with modifications. Cell viability was evaluated using thiazolyl blue tetrazolium bromide (MTT), which indicates the metabolic activity of cells. The experiment was performed in 96-well microplates. The cells were seeded at a density of 3.5×10^3 HeLa or NIH-3T3 cells per well. Samples were dissolved in DMSO (stock solution 10 mM) and subsequently diluted in medium to the final concentration of 5 µM to 100 µM (concentration of DMSO 0.5%) and after 24 h they were added to the cells. Microplates were cultivated for 72 h in thermostat at 37 °C and 5% CO2 atmosphere. After incubation thiazolyl blue tetrazolium bromide (3.33 mg/ml phosphate buffered saline, pH=7.4) was pipetted to each well and left to incubate for further two hours. Then the medium with MTT solution was removed. Formazan crystals in viable cells were dissolved in the lysis solution (4 mM HCl and 0.1% Nonidet P40 in ethanol). Microplates were shaken 15 min at 1500 rpm. Absorbance was measured at 540 nm and reference wavelength at 740 nm (Multiskan FC, Thermo Scientific, DE). Each value is the mean of 6 wells with standard deviation. Inhibition activity was expressed as percentages of control with DMSO. For each compound IC50 values were calculated by SigmaPlot.
Background: Formazan colour is commonly taken as a measure of viable cells.

The nature of experiment [2]: Scavenging of DPPH radical. The following applies: 10 min, room temperature, methanol, read-out: IC50 ± SD DPPH. On the procedure: We used the simple spectrophotometric method according to Yen and Chen ([1995]) to determine the ability to scavenge free radicals. Binding of DPPH? radical by compounds causes its decolorization. The compounds tested were diluted in methanol to the final concentration 200 µM to 12.5 µM. Trolox served as standard antioxidant control. Reactions of samples with DPPH? solution were performed in 96-well plates and lasted for 10 min at room temperature in the dark. After that, the absorbance changes were measured spectrophotometrically at 520 nm (Multiskan FC, Thermo Scientific, DE). Each value is the mean of 5 wells with standard deviation. Inhibitory concentrations (IC50) were expressed as the concentration of the derivative tested to react with one half of the DPPH? and were calculated by SigmaPlot.

In experiment [3] the test system is non-cancer murine fibroblast cells NIH-3T3. Description: MTT assay on NIH-3T3 cells. In kind it is cell-based. The following applies: for IC50: MTT, 72 h drug exposure, read-out: IC50 ± SD NIH-3T3 cells. On the procedure:
as §1, §2

Experiment [4] in a line: Ferric reducing antioxidant power (FRAP). The settings on record: 10 min, 37 °C, read-out: IC50 ± SD FRAP. On the procedure: The antioxidant reducing power of the derivatives tested was performed using the FRAP method according to Benzie and Strain ([1996]). Ferric to ferrous ion reduction at low pH causes the formation of a colored ferrous-tripyridyltriazine complex. Samples diluted in methanol (200 µM to 12.5 µM) and FRAP reagent reacted for 10 min at 37 °C in 96-well microplates. At the end, absorbance changes were measured spectrophotometrically at 593 nm (Multiskan FC, Thermo Scientific, DE). Each value is the mean of 5 wells with standard deviation. Inhibitory concentrations (IC50) were expressed as the concentration of the derivative tested reducing one half of ferric complexes and were calculated by SigmaPlot.

Another experiment deals with NIH-3T3 cells. As to the kind of experiment: Light microscopy of NIH-3T3 cells. Type of experiment: cell-based, murine. The settings on record: NIH-3T3, 25 µM and 50 µM, 72 h. On the procedure:
(§3) The cytotoxic action of the effective chloronaphtoquinone quercetin 5 was further observed also by light microscopy after 72 h of HeLa and NIH-3T3 cells cultivation. […] On the other hand, a significant decrease in cell number was found in cells treated with both concentrations studied (25 µM and 50 µM).
(§4) We monitored prepared quercetin derivatives for their cytotoxic action on human cervical cancer cells HeLa in the concentration range from 5 µM to 100 µM. For comparison non-cancer murine fibroblast cells NIH-3T3 were also evaluated. The MTT test and light microscopy were used for cytotoxicity measurements.

The test system of a further experiment is HeLa cells. Description: Light microscopy of HeLa cells. Type of experiment: cell-based, human. The settings on record: 25 µM and 50 µM, 72 h. The procedure: as §3, §4

Read-outs that look alike come from different tables or passages of the source. Some results are limits rather than exact numbers.

Regarding `O=c1c(O)c(-c2ccc(O)c(O)c2)oc2cc(O)cc(O)c12` [Q, quercetin], the IC50 in experiment [1] was 35.5 ± 1.1 µM; in experiment [2], 16.2 ± 1.1 µM; in experiment [3] (Mus musculus, NIH3T3, 72 h) it was 20.9 ± 0.9 µM; in experiment [4], 12.5 ± 0.9 µM.

With `Cc1c(C)c2c(c(C)c1O)CCC(C)(C(=O)O)O2` (stereo not shown) [T, trolox, reference compound], the IC50 in experiment [1] came to 34.7 ± 1 µM; in experiment [2], 34.7 ± 1 µM; in experiment [3] (Mus musculus, NIH3T3, 72 h) it was 39.5 ± 2.1 µM; in experiment [4], 39.5 ± 2.1 µM.

Take `O=C1c2c(O)cc(O)cc2OC2(c3ccc(O)c(O)c3)Oc3ccc(-c4oc5cc(O)cc(O)c5c(=O)c4O)cc3OC12O` (stereo not shown) [compound 1, diquercetin]: the IC50 in experiment [1] came to 64 ± 7.5 µM; in experiment [2] it was 58.8 ± 6.2 µM; in experiment [3] (Mus musculus, NIH3T3, 72 h) it was 32.9 ± 1.1 µM; in experiment [4], 103 ± 6.2 µM.

Take `CC(C)(CCl)C(=O)Oc1cc(-c2oc3cc(O)cc(O)c3c(=O)c2O)ccc1O` [compound 2]: the IC50 is 43.4 ± 2.8 µM in experiment [1]; 27 ± 0.2 µM in experiment [2]; 26.8 ± 0.5 µM in experiment [3] (Mus musculus, NIH3T3, 72 h); 12.5 ± 0.3 µM in experiment [4].

For `CC(C)(CCl)C(=O)Oc1cc(OC(=O)C(C)(C)CCl)c2c(=O)c(O)c(-c3ccc(O)c(OC(=O)C(C)(C)CCl)c3)oc2c1` [compound 3], the IC50 is 65 ± 4.5 µM in experiment [1]; greater than 200 µM in experiment [2]; 20.3 ± 1.9 µM in experiment [3] (Mus musculus, NIH3T3, 72 h); greater than 200 µM in experiment [4].

For `CC1CN(CC(O)COc2cc(O)cc3oc(-c4ccc(O)c(O)c4)c(O)c(=O)c23)CC(C)O1` (stereo not shown) [compound 4], the half-maximal inhibitory concentration (IC50) in experiment [1] was greater than 100 µM; in experiment [2] it was greater than 200 µM; in experiment [3] (Mus musculus, NIH3T3, 72 h), greater than 100 µM; in experiment [4], greater than 200 µM.

For the compound `O=C1C(Cl)=C(Oc2cc(-c3oc4cc(O)cc(O)c4c(=O)c3O)ccc2O)C(=O)c2ccccc21` [compound 5, chloronaphtoquinone quercetin], the inhibition at 25 µM is 94.5% in experiment [1] (25 µM, 72 h, read-out: Inhibition of cell proliferation) and 71.9% in experiment [3] (Mus musculus, NIH3T3, NIH-3T3, 25 µM, 72 h, read-out: Inhibition of cell proliferation). The inhibition at 50 µM in experiment [1] (50 µM, 72 h, read-out: Inhibition of cell proliferation) was determined as 97.9%; in experiment [3] (Mus musculus, NIH3T3, NIH-3T3, 50 µM, 72 h, read-out: Inhibition of cell proliferation), 85.2%. The inhibition at 100 µM in experiment [1] (100 µM, 72 h, read-out: Inhibition of cell proliferation) stood at 97.7%; in experiment [3] (Mus musculus, NIH3T3, NIH-3T3, 100 µM, 72 h, read-out: Inhibition of cell proliferation) it was 93.7%. Further, the IC50 was 13.2 ± 1.6 µM in experiment [1]; 28.4 ± 3 µM in experiment [2]; 16.5 ± 0.1 µM in experiment [3] (Mus musculus, NIH3T3, 72 h); 64.5 ± 0.6 µM in experiment [4]. The morphologic changes entry in the experiment on NIH-3T3 cells is “cell rounding and cell separation from the cultivation surface”; in the experiment on HeLa cells, “cell rounding and cell separation from the cultivation surface”.

Take `CC(=O)Oc1cc(OC(C)=O)c2c(=O)c(OC(C)=O)c(-c3ccc(OC(C)=O)c(OC(C)=O)c3)oc2c1` [compound 6, pentaacetyl quercetin]: the IC50 in experiment [1] was 29.6 ± 1.9 µM; in experiment [2] it was greater than 200 µM; in experiment [3] (Mus musculus, NIH3T3, 72 h) it was 15.5 ± 0.7 µM; in experiment [4], greater than 200 µM.

As to `CC(C)=CCOc1ccc(/C=C/C(=O)Oc2cc(O)c3c(=O)c(O)c(-c4ccc(OC(=O)/C=C/c5ccc(OCC=C(C)C)c(OCC=C(C)C)c5)c(OC(=O)/C=C/c5ccc(OCC=C(C)C)c(OCC=C(C)C)c5)c4)oc3c2)cc1OCC=C(C)C` [compound 7], the IC50 is greater than 50 µM in experiment [1]; greater than 200 µM in experiment [2]; greater than 50 µM in experiment [3]; greater than 100 µM in experiment [3] (Mus musculus, NIH3T3, 72 h); greater than 200 µM in experiment [4].

Turning to `CC(C)=CCOc1ccc(/C=C/C(=O)Oc2cc(O)c3c(=O)c(O)c(-c4ccc(OC(=O)/C=C/c5ccc(OCC=C(C)C)c(OCC=C(C)C)c5)c(O)c4)oc3c2)cc1OCC=C(C)C` [compound 8], the IC50 in experiment [1] was greater than 50 µM; in experiment [2], 161 ± 13.2 µM; in experiment [3], greater than 50 µM; in experiment [3] (Mus musculus, NIH3T3, 72 h) it was greater than 100 µM; in experiment [4], greater than 200 µM.

In the case of `CC(=O)OC1CC(OC(C)=O)(C(=O)Oc2cc(O)c3c(=O)c(O)c(-c4ccc(OC(=O)C5(OC(C)=O)CC(OC(C)=O)C(OC(C)=O)C(OC(C)=O)C5)c(O)c4)oc3c2)CC(OC(C)=O)C1OC(C)=O` (stereo not shown) [compound 9, di(tetraacetylquinoyl) quercetin], the IC50 in experiment [1] is 19.5 ± 0.8 µM; in experiment [2], 63.7 ± 2.6 µM; in experiment [3] (Mus musculus, NIH3T3, 72 h), 16.1 ± 0.4 µM; in experiment [4], 112 ± 7.3 µM.

Take `CC(=O)Oc1ccc(/C=C/C(=O)Oc2ccc(-c3oc4cc(O)c(O)cc4c(=O)c3OC(=O)/C=C/c3ccc(OC(C)=O)c(OC(C)=O)c3)cc2OC(=O)/C=C/c2ccc(OC(C)=O)c(OC(C)=O)c2)cc1OC(C)=O` [compound 11]: the IC50 in experiment [1] is 16.5 ± 1.5 µM; in experiment [2], 35.4 ± 2.7 µM; in experiment [3] (Mus musculus, NIH3T3, 72 h), 10.6 ± 0.1 µM; in experiment [4] it was greater than 200 µM.

As for `CC(=O)Oc1ccccc1C(=O)Oc1ccc(-c2oc3cc(O)cc(OC(=O)c4ccccc4OC(C)=O)c3c(=O)c2OC(=O)c2ccccc2OC(C)=O)cc1OC(=O)c1ccccc1OC(C)=O` [compound 12, tetra(acetylsalicyloyl) quercetin], the IC50 in experiment [1] was greater than 50 µM; in experiment [2], greater than 200 µM; in experiment [3] (Mus musculus, NIH3T3, 72 h) it was greater than 50 µM; in experiment [4], greater than 200 µM.

With `COc1ccc(/C=C/C(=O)Oc2ccc(-c3oc4cc(O)cc(O)c4c(=O)c3O)cc2OC(=O)/C=C/c2ccc(OC)c(OCC=C(C)C)c2)cc1OCC=C(C)C` [compound 14], the IC50 in experiment [1] was greater than 50 µM; in experiment [2] it was 82.8 ± 3.3 µM; in experiment [3] (Mus musculus, NIH3T3, 72 h) it was greater than 50 µM; in experiment [4] it was 183 ± 13.5 µM.

In the case of `COc1ccc(/C=C/C(=O)Oc2cc(-c3oc4cc(O)cc(O)c4c(=O)c3O)ccc2O)cc1OC(C)=O` [compound 15], the IC50 in experiment [1] was greater than 50 µM; in experiment [2], greater than 200 µM; in experiment [3] (Mus musculus, NIH3T3, 72 h) it was greater than 50 µM; in experiment [4] it was greater than 200 µM.
